Results: US20210267203A1, “PESTICIDALLY ACTIVE AZOLE-AMIDE COMPOUNDS” (SYNGENTA PARTICIPATIONS AG, priority 2018, published 2021)

How the values were obtained:
Assay type in all cases: in vivo
[1] = test system: Diabrotica Balteata (Corn Root Worm); test: Example B1: Diabrotica balteata (corn root worm), maize sprouts sprayed, L2 larvae; conditions: 96 h, application rate 200 ppm, 4 days after infestation, read-out: effect in at least one of the two categories (mortality or growth inhibition)
In short: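 Maize sprouts on agar sprayed with aqueous dilutions of 10,000 ppm DMSO stocks, dried, then infested with 6–10 L2 larvae per well. Mortality and growth inhibition scored against untreated samples 4 days after infestation; rates of 200 ppm.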

[2] = test system: Euschistus heros (Neotropical Brown Stink Bug); test: Example B2: Euschistus heros (neotropical brown stink bug), soybean leaves sprayed, N2 nymphs; conditions: 120 h, application rate 200 ppm, 5 days after infestation, read-out: effect in at least one of the two categories (mortality or growth inhibition)
In short: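 Soybean leaves on agar sprayed with aqueous test solutions made from 10,000 ppm DMSO stocks, dried, then infested with N2 nymphs. Mortality and growth inhibition scored versus untreated samples 5 days after infestation; activity threshold at 200 ppm.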

[3] = test system: Plutella xylostella (Diamond Back Moth); test: Example B5: Plutella xylostella (diamond back moth), artificial diet, 24-well, eggs; conditions: 192 h, application rate 200 ppm, 8 days after infestation, read-out: effect in at least one of the two categories (mortality or growth inhibition)
In short: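 Artificial diet in 24-well plates treated with aqueous dilutions of 10,000 ppm DMSO stocks, dried, then infested with Plutella eggs. Mortality and growth inhibition scored against untreated samples 8 days after infestation; activity rated at 200 ppm application rate.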

[4] = test system: Myzus persicae (Green Peach Aphid); test: Example B7: Myzus persicae (green peach aphid), systemic activity; conditions: 144 h, test rate 24 ppm, pea seedling roots in test solution, 6 days
Method: Example B7: Myzus persicae (Green Peach Aphid), Systemic Activity
Roots of pea seedlings infested with an aphid population of mixed ages were placed directly into aqueous test solutions prepared from 10,000 DMSO stock solutions. The samples were assessed for mortality 6 days after placing seedlings into test solutions.

[5] = test system: Myzus persicae (Green Peach Aphid); test: Example B8: Myzus persicae (green peach aphid), intrinsic activity; conditions: 120 h, test rate 12 ppm, sucrose solution, 24-well, 5 days after infestation
In short: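 Compounds diluted from 10,000 ppm DMSO stock were mixed with sucrose solution under stretched Parafilm in a sachet feeding setup, with aphid-infested pea seedlings placed on the membrane. Mortality was scored 5 days after infestation.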

[6] = test system: Spodoptera littoralis (Egyptian Cotton Leaf Worm); test: Example B9: Spodoptera littoralis (Egyptian cotton leaf worm), cotton leaf discs sprayed, L1 larvae; conditions: foliar, 72 h, application rate 200 ppm, 3 days after infestation
In short: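 Leaf discs on agar sprayed with aqueous dilutions from 10,000 ppm DMSO stock, dried, then infested with five L1 larvae. Mortality, anti-feeding and growth inhibition scored against untreated samples 3 days after infestation; control counted when any category exceeds untreated.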

[7] = test system: Thrips tabaci (Onion Thrips); test: Example B12: Thrips tabaci (onion thrips), feeding/contact activity; conditions: 144 h, application rate 200 ppm, mixed ages, 6 days after infestation
Method: Example B12: Thrips tabaci (Onion Thrips) Feeding/Contact Activity
Sunflower leaf discs were placed on agar in 24-well microtiter plates and sprayed with aqueous test solutions prepared from 10,000 ppm DMSO stock solutions. After drying the leaf discs were infested with a thrips population of mixed ages. The samples were assessed for mortality 6 days after infestation.

[8] = test system: Myzus persicae (Green Peach Aphid); test: Example B13: activity against Myzus persicae (green peach aphid), 96-well sucrose solution; conditions: 120 h, application rate 50 ppm, 5 days after infestation
In short: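 Compounds, from 10,000 ppm DMSO stocks, mixed into sucrose solution in wells under stretched Parafilm, with aphids placed on the membrane in an inverted feeding setup. Mortality scored 5 days after infestation.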

[9] = test system: Plutella xylostella (Diamondback Moth); test: Example B14: activity against Plutella xylostella (diamondback moth), 96-well artificial diet; conditions: 216 h, application rate 500 ppm, 9 days after infestation
In short: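 Diet in 96-well plates was treated with aqueous dilutions of 10,000 ppm DMSO stocks, dried, and infested with 30 eggs per well via a netted lid; hatching L1 larvae fed on the diet. Mortality scored 9 days after infestation.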

[10] = test system: Chilo suppressalis (Striped Rice Stemborer); test: Example B4: Chilo suppressalis (striped rice stemborer), artificial diet, L2 larvae; conditions: 144 h, application rate 200 ppm, 6 days after infestation
In short: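 L2 larvae (6-8 per well) placed on artificial diet treated with aqueous test solutions prepared from 10,000 ppm DMSO stocks, after drying. Mortality, anti-feeding and growth inhibition scored against untreated samples 6 days after infestation; control means at least one category exceeds untreated.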

[11] = test system: Myzus persicae (Green Peach Aphid); test: Example B6: Myzus persicae (green peach aphid), feeding/contact activity; conditions: 144 h, application rate 200 ppm, 6 days after infestation
Method: Example B6: Myzus persicae (Green Peach Aphid):Feeding/Contact Activity
Sunflower leaf discs were placed onto agar in a 24-well microtiter plate and sprayed with aqueous test solutions prepared from 10,000 ppm DMSO stock solutions. After drying, the leaf discs were infested with an aphid population of mixed ages. The samples were assessed for mortality 6 days after infestation.

[12] = test system: Spodoptera littoralis (Egyptian Cotton Leaf Worm); test: Example B10: Spodoptera littoralis (Egyptian cotton leaf worm), uptake by lettuce roots from agar, eggs; conditions: 144 h, test rate 12.5 ppm, lettuce root uptake, 6 days after infestation, read-out: effect in at least one of the three categories (mortality, anti-feeding, or growth inhibition)
From the text: Example B10: Spodoptera littoralis (Egyptian Cotton Leaf Worm)
Test compounds were applied by pipette from 10,000 ppm DMSO stock solutions into 24-well plates and mixed with agar. Lettuce seeds were placed onto the agar and the multi well plate was closed by another plate which contained also agar. After 7 days the compound was absorbed by the roots and the lettuce grew into the lid plate. The lettuce leaves were then cut off into the lid plate. Spodoptera eggs were pipetted through a plastic stencil onto a humid gel blotting paper and the lid plate was closed with it. The samples were assessed for mortality, anti-feedant effect and growth inhibition in comparison to untreated samples 6 days after infestation.
The following compounds gave an effect of at least 80% in at least one of the three categories (mortality, anti-feeding, or growth inhibition) at a test rate of 12.5 ppm: […]

CC(c1ncnn1-c1ncccn1)N(CC1CC1)C(=O)c1cc(C(F)(F)F)cc(C(C)(C)C#N)c1 (stereo not shown) [P35, 3-(1-cyano-1-methyl-ethyl)-N-(cyclopropylmethyl)-N-[1-(2-pyrimidin-2-yl-1,2,4-triazol-3-yl)ethyl]-5-(trifluoromethyl)benzamide]
≥ 80%: percent effect (mortality or growth inhibition) at 200 ppm [1] | percent effect (mortality or growth inhibition) at 200 ppm [2] | percent effect (mortality or growth inhibition) at 200 ppm [3] | mortality at 24 ppm [4] | mortality at 12 ppm [5] | percent control (mortality, anti-feedant effect or growth inhibition) at 200 ppm [6] | mortality at 200 ppm [7] | mortality at 50 ppm [8] | mortality at 500 ppm [9]

CC(c1ncnn1-c1ncccn1)N(CC1CC1)C(=O)c1cc(C2CC2C(F)(F)F)cc(C(F)(F)F)c1 (stereo not shown) [P42, N-(cyclopropylmethyl)-N-[1-(2-pyrimidin-2-yl-1,2,4-triazol-3-yl)ethyl]-3-(trifluoromethyl)-5-[2-(trifluoromethyl)cyclopropyl]benzamide]
≥ 80%: percent effect (mortality or growth inhibition) at 200 ppm [1] | percent effect (mortality or growth inhibition) at 200 ppm [2] | percent control (mortality, anti-feedant effect or growth inhibition) at 200 ppm [10] | percent effect (mortality or growth inhibition) at 200 ppm [3] | mortality at 200 ppm [11] | mortality at 12 ppm [5] | percent control (mortality, anti-feedant effect or growth inhibition) at 200 ppm [6] | percent effect (mortality, anti-feeding or growth inhibition) at 12.5 ppm [12] | mortality at 200 ppm [7] | mortality at 50 ppm [8] | mortality at 500 ppm [9]

CC(c1ncnn1-c1ncccn1)N(CC1CC1)C(=O)c1cc(C(F)(F)F)cc(C(F)(F)C2CC2)c1 (stereo not shown) [P49, 3-[cyclopropyl(difluoro)methyl]-N-(cyclopropylmethyl)-N-[1-(2-pyrimidin-2-yl-1,2,4-triazol-3-yl)ethyl]-5-(trifluoromethyl)benzamide]
≥ 80%: percent effect (mortality or growth inhibition) at 200 ppm [1] | percent effect (mortality or growth inhibition) at 200 ppm [2] | percent control (mortality, anti-feedant effect or growth inhibition) at 200 ppm [10] | percent effect (mortality or growth inhibition) at 200 ppm [3] | mortality at 12 ppm [5] | percent control (mortality, anti-feedant effect or growth inhibition) at 200 ppm [6] | percent effect (mortality, anti-feeding or growth inhibition) at 12.5 ppm [12] | mortality at 200 ppm [7] | mortality at 50 ppm [8] | mortality at 500 ppm [9]

CC(c1ncnn1-c1ncccn1)N(CC1CC1)C(=O)c1cc(C2CC2(F)F)cc(C(F)(F)F)c1 (stereo not shown) [P50, N-(cyclopropylmethyl)-3-(2,2-difluorocyclopropyl)-N-[1-(2-pyrimidin-2-yl-1,2,4-triazol-3-yl)ethyl]-5-(trifluoromethyl)benzamide]
≥ 80%: percent effect (mortality or growth inhibition) at 200 ppm [1] | percent control (mortality, anti-feedant effect or growth inhibition) at 200 ppm [10] | percent effect (mortality or growth inhibition) at 200 ppm [3] | mortality at 200 ppm [11] | mortality at 12 ppm [5] | percent control (mortality, anti-feedant effect or growth inhibition) at 200 ppm [6] | percent effect (mortality, anti-feeding or growth inhibition) at 12.5 ppm [12] | mortality at 200 ppm [7] | mortality at 50 ppm [8] | mortality at 500 ppm [9]

Cc1nc(C(C)NC(=O)c2cc(C(F)(F)F)cc(C(C)(C)C#N)c2)n(-c2ncccn2)n1 (stereo not shown) [P82, 3-(1-cyano-1-methyl-ethyl)-N-[1-(5-methyl-2-pyrimidin-2-yl-1,2,4-triazol-3-yl)ethyl]-5-(trifluoromethyl)benzamide]
≥ 80%: percent effect (mortality or growth inhibition) at 200 ppm [1] | percent effect (mortality or growth inhibition) at 200 ppm [2] | percent control (mortality, anti-feedant effect or growth inhibition) at 200 ppm [10] | percent effect (mortality or growth inhibition) at 200 ppm [3] | mortality at 200 ppm [11] | mortality at 24 ppm [4] | mortality at 12 ppm [5] | percent control (mortality, anti-feedant effect or growth inhibition) at 200 ppm [6]

CC(NC(=O)c1cc(C(F)(F)F)cc(C(C)(C)C#N)c1)c1ncnn1-c1ncccn1 (stereo not shown) [P84, 3-(1-cyano-1-methyl-ethyl)-N-[1-(2-pyrimidin-2-yl-1,2,4-triazol-3-yl)ethyl]-5-(trifluoromethyl)benzamide]
≥ 80%: percent effect (mortality or growth inhibition) at 200 ppm [1] | percent effect (mortality or growth inhibition) at 200 ppm [2] | percent control (mortality, anti-feedant effect or growth inhibition) at 200 ppm [10] | percent effect (mortality or growth inhibition) at 200 ppm [3] | mortality at 24 ppm [4] | mortality at 12 ppm [5] | percent control (mortality, anti-feedant effect or growth inhibition) at 200 ppm [6]
